Columns and labels:
[1] = Drug uptake in ICR mouse liver at 50 mg/kg, ig measured after 3 hrs by LC-MS/MS analysis; format: ADME, organism-based; details: po, read-out: Drug uptake
[2] = Plasma concentration in ICR mouse at 50 mg/kg, ig measured after 3 hrs by LC-MS/MS analysis; format: ADME, organism-based; details: po
[3] = Ratio of drug level in ICR mouse liver to plasma at 50 mg/kg, ig measured after 3 hrs by LC-MS/MS analysis; format: ADME, organism-based; details: liver and plasma, po
[4] = Drug metabolism in ICR mouse liver assessed as ratio of tenofovir level to parent compound level at 50 mg/kg, ig measured after 3 hrs by LC-MS/MS analysis; format: ADME, organism-based; details: in vivo, po
[5] = Drug metabolism in ICR mouse plasma assessed as ratio of tenofovir level to parent compound level at 50 mg/kg, ig measured after 3 hrs by LC-MS/MS analysis; format: ADME, organism-based; details: in vivo, po
[6] = Drug metabolism in ICR mouse liver assessed as tenofovir metabolite level at 50 mg/kg, ig measured after 3 hrs by LC-MS/MS analysis; format: ADME, organism-based; details: in vivo, po
[7] = Drug metabolism in ICR mouse plasma assessed as tenofovir metabolite level at 50 mg/kg, ig measured after 3 hrs by LC-MS/MS analysis; format: ADME, organism-based; details: in vivo, po
[8] = Drug metabolism in ICR mouse assessed as ratio of tenofovir metabolite level in liver to plasma at 50 mg/kg, ig measured after 3 hrs by LC-MS/MS analysis; format: ADME, organism-based; details: other tissue, po
Hepatitis B virus = assay: Antiviral activity against Hepatitis B virus infected in human HepG2.2.15 cells assessed as inhibition of viral DNA replication treated from day 2 to day 8 by real time fluorescence qPCR analysis; format: functional, organism-based
[9] = Cytotoxicity against human HepG2.2.15 cells assessed as reduction in cell viability treated from day 2 to day 8 by CellTiter-Blue reagent based fluorescence analysis; format: toxicity, HepG2 2.2.15; details: time 6 day
[10] = Stability of the compound in simulated gastric fluid at 10 uM incubated at 37 degC for upto 1440 mins by LC-MS/MS analysis; format: ADME; details: simulated gi fluid, 24 h
[11] = Stability of the compound in simulated intestinal fluid at 10 uM incubated at 37 degC for upto 1440 mins by LC-MS/MS analysis; format: ADME; details: simulated gi fluid, 24 h
[12] = Stability of the compound in human plasma at 2 uM incubated for upto 120 mins by LC-MS/MS analysis; format: ADME, cell-free; details: 2 h
[13] = Drug metabolism in human liver S9 fraction assessed as tenofovir metabolite formation at 1 uM incubated for upto 60 mins by LC-MS/MS analysis; format: ADME, subcellular; details: s9, 1 h
[14] = molecular target: Voltage-gated inwardly rectifying potassium channel KCNH2 (Homo sapiens, UniProt Q12809); assay: Inhibition of hERG expressed in CHO cells assessed as inhibition of channel current measured at holding potential of -80 mV by whole cell patch clamp analysis; format: toxicity, cell-based
[15] = Mutagenicity in Salmonella typhimurium TA98 assessed as revertant colonies at 1.5 to 1000 ug/well incubated for 66.5 hrs in the dark by mini-Ames test; format: toxicity; details: salmonella enterica subsp. enterica serovar typhimurium, dose 1.5-1000 µg
[16] = Mutagenicity in Salmonella typhimurium TA98 assessed as revertant colonies at 1.5 to 1000 ug/well incubated for 66.5 hrs in the dark in presence of S9 fraction by mini-Ames test; format: toxicity, subcellular; details: salmonella enterica subsp. enterica serovar typhimurium, s9, 66.5 h, dose 1.5-1000 µg
[17] = Mutagenicity in Salmonella typhimurium TA100 assessed as revertant colonies at 1.5 to 1000 ug/well incubated for 66.5 hrs in the dark by mini-Ames test; format: toxicity; details: salmonella enterica subsp. enterica serovar typhimurium, dose 1.5-1000 µg
[18] = Mutagenicity in Salmonella typhimurium TA100 assessed as revertant colonies at 1.5 to 1000 ug/well incubated for 66.5 hrs in the dark in presence of S9 fraction by mini-Ames test; format: toxicity, subcellular; details: salmonella enterica subsp. enterica serovar typhimurium, s9, 66.5 h, dose 1.5-1000 µg
[19] = Drug metabolism in Sprague-Dawley rat assessed as terminal elimination half life of tenofovir metabolite at 5 mg/kg, iv measured for 24 hrs by LC-MS/MS analysis; format: ADME, organism-based; details: in vivo
[20] = Drug metabolism in Sprague-Dawley rat assessed as clearance of tenofovir metabolite at 5 mg/kg, iv measured for 24 hrs by LC-MS/MS analysis; format: ADME, organism-based; details: in vivo
[21] = Drug metabolism in Sprague-Dawley rat assessed as volume of distribution of tenofovir metabolite at 5 mg/kg, iv measured for 24 hrs by LC-MS/MS analysis; format: ADME, organism-based; details: in vivo
[22] = Drug metabolism in Sprague-Dawley rat assessed as MRT(0 to t) of tenofovir metabolite at 5 mg/kg, iv measured for 24 hrs by LC-MS/MS analysis; format: ADME, organism-based; details: in vivo
[23] = Drug metabolism in Sprague-Dawley rat assessed as terminal elimination half life of tenofovir metabolite at 25 mg/kg, ig measured for 24 hrs by LC-MS/MS analysis; format: ADME, organism-based; details: in vivo, po
[24] = Drug metabolism in Sprague-Dawley rat assessed as Tmax of tenofovir metabolite at 25 mg/kg, ig measured for 24 hrs by LC-MS/MS analysis; format: ADME, organism-based; details: in vivo, po
[25] = Drug metabolism in Sprague-Dawley rat assessed as Cmax of tenofovir metabolite at 25 mg/kg, ig measured for 24 hrs by LC-MS/MS analysis; format: ADME, organism-based; details: in vivo, po
[26] = Drug metabolism in Sprague-Dawley rat assessed as bioavailability of tenofovir metabolite at 25 mg/kg, ig measured for 24 hrs by LCMS/MS analysis; format: ADME, organism-based; details: in vivo, po
[27] = Drug metabolism in Sprague-Dawley rat plasma assessed as terminal elimination half life of tenofovir metabolite at 25 mg/kg, ig measured for 12 hrs by LC-MS/MS analysis; format: ADME, organism-based; details: in vivo, po
[28] = Drug metabolism in Sprague-Dawley rat liver assessed as terminal elimination half life of tenofovir metabolite at 25 mg/kg, ig measured for 12 hrs by LC-MS/MS analysis; format: ADME, organism-based; details: in vivo, po
[29] = Drug metabolism in Sprague-Dawley rat kidney assessed as terminal elimination half life of tenofovir metabolite at 25 mg/kg, ig measured for 12 hrs by LC-MS/MS analysis; format: ADME, organism-based; details: in vivo, po
[30] = Drug metabolism in Sprague-Dawley rat plasma assessed as Tmax of tenofovir metabolite at 25 mg/kg, ig measured for 12 hrs by LC-MS/MS analysis; format: ADME, organism-based; details: in vivo, po
[31] = Drug metabolism in Sprague-Dawley rat liver assessed as Tmax of tenofovir metabolite at 25 mg/kg, ig measured for 12 hrs by LC-MS/MS analysis; format: ADME, organism-based; details: in vivo, po
[32] = Drug metabolism in Sprague-Dawley rat kidney assessed as Tmax of tenofovir metabolite at 25 mg/kg, ig measured for 12 hrs by LC-MS/MS analysis; format: ADME, organism-based; details: in vivo, po
[33] = Drug metabolism in Sprague-Dawley rat plasma assessed as Cmax of tenofovir metabolite at 25 mg/kg, ig measured for 12 hrs by LC-MS/MS analysis; format: ADME, organism-based; details: in vivo, po
[34] = Drug metabolism in Sprague-Dawley rat liver assessed as Cmax of tenofovir metabolite at 25 mg/kg, ig measured for 12 hrs by LC-MS/MS analysis; format: ADME, organism-based; details: in vivo, po
[35] = Drug metabolism in Sprague-Dawley rat kidney assessed as Cmax of tenofovir metabolite at 25 mg/kg, ig measured for 12 hrs by LC-MS/MS analysis; format: ADME, organism-based; details: in vivo, po

Voltage-gated inwardly rectifying potassium channel KCNH2, sequence (Q12809 whole entry): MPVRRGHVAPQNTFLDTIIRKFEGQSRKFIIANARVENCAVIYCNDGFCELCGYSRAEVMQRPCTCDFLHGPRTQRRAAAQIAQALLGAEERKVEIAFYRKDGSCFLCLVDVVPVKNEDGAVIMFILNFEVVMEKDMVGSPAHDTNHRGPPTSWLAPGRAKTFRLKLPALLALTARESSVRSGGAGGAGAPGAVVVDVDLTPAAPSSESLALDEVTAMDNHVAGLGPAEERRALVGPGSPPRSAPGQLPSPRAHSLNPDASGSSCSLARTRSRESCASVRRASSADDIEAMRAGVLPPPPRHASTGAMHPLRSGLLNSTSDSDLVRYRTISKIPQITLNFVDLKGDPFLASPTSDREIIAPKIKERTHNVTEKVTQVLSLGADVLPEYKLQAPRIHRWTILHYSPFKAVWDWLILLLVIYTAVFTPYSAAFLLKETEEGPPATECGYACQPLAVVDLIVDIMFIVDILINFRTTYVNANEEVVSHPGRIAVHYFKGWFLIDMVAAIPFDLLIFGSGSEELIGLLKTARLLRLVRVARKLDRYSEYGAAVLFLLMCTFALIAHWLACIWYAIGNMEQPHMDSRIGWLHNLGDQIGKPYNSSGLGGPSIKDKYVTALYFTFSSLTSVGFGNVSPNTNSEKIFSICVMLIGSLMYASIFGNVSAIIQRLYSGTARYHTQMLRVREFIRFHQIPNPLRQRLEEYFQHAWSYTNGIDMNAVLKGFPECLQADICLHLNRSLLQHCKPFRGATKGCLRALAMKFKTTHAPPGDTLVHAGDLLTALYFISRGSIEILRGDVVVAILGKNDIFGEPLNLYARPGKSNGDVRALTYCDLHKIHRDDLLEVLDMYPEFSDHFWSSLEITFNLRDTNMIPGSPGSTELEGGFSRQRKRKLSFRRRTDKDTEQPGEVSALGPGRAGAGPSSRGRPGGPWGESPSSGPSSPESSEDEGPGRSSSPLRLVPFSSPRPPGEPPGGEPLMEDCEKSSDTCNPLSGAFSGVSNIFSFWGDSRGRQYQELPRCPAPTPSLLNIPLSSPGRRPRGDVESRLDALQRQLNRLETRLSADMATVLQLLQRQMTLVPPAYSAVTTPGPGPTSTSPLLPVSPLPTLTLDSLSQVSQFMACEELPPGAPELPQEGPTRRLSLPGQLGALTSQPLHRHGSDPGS

## CC(C)OC(=O)[C@H](C)NP(=O)(CO[C@H](C)Cn1cnc2c(N)ncnc21)OCc1ccccc1 (some centres not stated)
[1]
  concentration at 3 h: 375 nM
[2]
  concentration at 3 h: 104 nM
[3]
  Kp at 3 h: 3.61
[4]
  Ratio: 166
[5]
  Ratio: 0.72
[6]
  Drug metabolism: 67.251 nmol/mL
[7]
  Drug metabolism: 0.075 nmol/mL
[8]
  Ratio: 896

## CC(C)OC(=O)CNP(=O)(CO[C@H](C)Cn1cnc2c(N)ncnc21)OCc1ccccc1 (single isomer, unassigned; 1a)
Hepatitis B virus
  EC50: > 1000 nM
[9]
  CC50 at 144 h: > 100 µM

## CC(C)OC(=O)CNP(=O)(CO[C@H](C)Cn1cnc2c(N)ncnc21)OCc1ccccc1 (single isomer, unassigned; 1b)
Hepatitis B virus
  EC50: 290 nM
[9]
  CC50 at 144 h: > 100 µM

## COC(=O)CNP(=O)(CO[C@H](C)Cn1cnc2c(N)ncnc21)OCc1ccccc1 (single isomer, unassigned; 2a)
Hepatitis B virus
  EC50: 418 nM
[9]
  CC50 at 144 h: > 100 µM

## COC(=O)CNP(=O)(CO[C@H](C)Cn1cnc2c(N)ncnc21)OCc1ccccc1 (single isomer, unassigned; 2b)
Hepatitis B virus
  EC50: > 1000 nM
[9]
  CC50 at 144 h: > 100 µM

## CC(C)OC(=O)[C@H](C)NP(=O)(CO[C@H](C)Cn1cnc2c(N)ncnc21)OCc1ccccc1 (single isomer, unassigned; 3a)
Hepatitis B virus
  EC50: 3.39 nM
[9]
  CC50 at 144 h: > 100 µM
[10]
  Stability: Stable
[11]
  Stability: Stable
[12]
  Stability: Stable
[13]
  Drug metabolism: Metabolite_Detected
[14]
  IC50: > 10 µM
[15]
  Activity: Non-Toxic
[16]
  Activity: Non-Toxic
[17]
  Activity: Non-Toxic
[18]
  Activity: Non-Toxic
[19]
  t1/2: 2.89 h
[20]
  CL: 20.9 L/h/kg
[21]
  Vd: 86.6 L/kg
[22]
  MRT(t): 55.3 min
[23]
  t1/2: 10.7 h
[24]
  Tmax: 8.82 min
[25]
  Cmax: 98.35 ng/mL
[26]
  F: 32.7%
[27]
  t1/2: 6.58 h
[28]
  t1/2: 6.77 h
[29]
  t1/2: 322 h
[30]
  Tmax: 15 min
[31]
  Tmax: 15 min
[32]
  Tmax: 15 min
[33]
  Cmax: 279 ng/mL
[34]
  Cmax: 10589 ng/mL
[35]
  Cmax: 3234 ng/mL

## CC(C)OC(=O)[C@H](C)NP(=O)(CO[C@H](C)Cn1cnc2c(N)ncnc21)OCc1ccccc1 (single isomer, unassigned; 3b)
Hepatitis B virus
  EC50: 6 nM
[9]
  CC50 at 144 h: > 100 µM
[10]
  Stability: Stable
[11]
  Stability: Stable
[12]
  Stability: Stable
[13]
  Drug metabolism: Metabolite_Detected
[14]
  IC50: > 30 µM
[15]
  Activity: Non-Toxic
[16]
  Activity: Non-Toxic
[17]
  Activity: Non-Toxic
[18]
  Activity: Non-Toxic
[19]
  t1/2: 2 h
[20]
  CL: 26.1 L/h/kg
[21]
  Vd: 67.4 L/kg
[22]
  MRT(t): 29.3 min
[23]
  t1/2: 2.84 h
[24]
  Tmax: 22.5 min
[25]
  Cmax: 143 ng/mL
[26]
  F: 31.5%
[27]
  t1/2: 6.56 h
[28]
  t1/2: 10.7 h
[29]
  t1/2: 26.2 h
[30]
  Tmax: 15 min
[31]
  Tmax: 15 min
[32]
  Tmax: 15 min
[33]
  Cmax: 216 ng/mL
[34]
  Cmax: 10557 ng/mL
[35]
  Cmax: 4663 ng/mL

## C[C@H](Cn1cnc2c(N)ncnc21)OCP(=O)(NCC(=O)Oc1ccccc1)OCc1ccccc1 (single isomer, unassigned; 4a)
Hepatitis B virus
  EC50: 214 nM
[9]
  CC50 at 144 h: > 100 µM

## C[C@H](Cn1cnc2c(N)ncnc21)OCP(=O)(NCC(=O)Oc1ccccc1)OCc1ccccc1 (single isomer, unassigned; 4b)
Hepatitis B virus
  EC50: 848 nM
[9]
  CC50 at 144 h: > 100 µM

## Cc1ccccc1COP(=O)(CO[C@H](C)Cn1cnc2c(N)ncnc21)N[C@@H](C)C(=O)OC(C)C (single isomer, unassigned; 5a)
Hepatitis B virus
  EC50: > 1000 nM
[9]
  CC50 at 144 h: > 100 µM

## Cc1ccccc1COP(=O)(CO[C@H](C)Cn1cnc2c(N)ncnc21)N[C@@H](C)C(=O)OC(C)C (single isomer, unassigned; 5b)
Hepatitis B virus
  EC50: 275 nM
[9]
  CC50 at 144 h: > 100 µM
[14]
  IC50: > 10 µM

## CC(C)OC(=O)[C@H](C)N[P@](=O)(CO[C@H](C)Cn1cnc2c(N)ncnc21)Oc1ccccc1 [TENOFOVIR ALAFENAMIDE]
Hepatitis B virus
  EC50: 17.8 nM
[9]
  CC50 at 144 h: > 100 µM
[13]
  Drug metabolism: Metabolite_Detected
[14]
  IC50: > 10 µM
[19]
  t1/2: 4.59 h
[20]
  CL: 2.57 L/h/kg
[21]
  Vd: 16.1 L/kg
[22]
  MRT(t): 100 min
[23]
  t1/2: 5.46 h
[24]
  Tmax: 22.5 min
[25]
  Cmax: 1370 ng/mL
[26]
  F: 27.7%
[27]
  t1/2: 4.44 h
[28]
  t1/2: 6.2 h
[29]
  t1/2: 5.2 h
[30]
  Tmax: 15 min
[31]
  Tmax: 15 min
[32]
  Tmax: 15 min
[33]
  Cmax: 4027 ng/mL
[34]
  Cmax: 29820 ng/mL
[35]
  Cmax: 16471 ng/mL
